Test results taken from US20080167379A1, “Ointment” (TAISHO PHARMACEUTICAL CO., LTD., priority 2005, published 2008).

Tests used:
NC/Nga mice = assay: Spontaneous scratching action after ointment application; type: in vivo; details: ointment applied to NC/Nga mice; FIG. 2
Method: [FIG. 2] A graph showing the number of scratching action (average value ±SE, n=8) when a present ointment was applied to NC/Nga mice.
(§1) According to the methods described in the literature (Japanese Laid-open patent publication Nos. 2005-247843 and 2005-247842), measurements of the spontaneous action of scratching and the amount of transdermal water evaporation were performed with regard to the compound represented by formula (II). A test was performed, using ointments prepared in the same manner as in Example 4 to have the compound represented by formula (II) at concentrations of 0.0001% and 0.001%.

[1] = Storage stability of ointment at 40° C. and 75% RH: content against initial content; type: physicochemical; details: storage at 40° C. and 75% RH 1 month or 25° C. 3 months, Table 5
Method: To confirm the storage stability of the compound represented by formula (II) in the preparation, the content (%) of the compound after a storage at 40° C. and 75% RH against the content at the time of initiation, was determined.
To confirm the storage stability of the compound represented by formula (II) in the preparation, the contents (%) of the compound after storages at 40° C. and 75% RH, and at 50° C. against the content at the time of initiation, was determined.
To confirm the storage stability of the compound represented by formula (II) in the preparation, the contents (%) of the compound after a storage at 40° C. and 75% RH, or at 25° C. against the content at the time of initiation, was determined.

[2] = system: BALB/c mice having the skin barrier destroyed by chafing; assay: Transdermal water evaporation (TEWL) after ointment application; type: in vivo; details: ointment applied to BALB/c mice with skin barrier destroyed by chafing, compared with base only; FIG. 3
Method: [FIG. 3] A graph showing the amount of transdermal evaporation of water (TEWL, average value ±SE, n=8) when a present ointment was applied to BALB/c mice having the skin barrier destroyed by chafing.
as §1

O=C(O)CSCCCC[C@@H]1[C@@H](C#C[C@@H](O)C2CCCCC2)[C@H](O)C[C@H]1Cl [compound represented by formula (II)]
number of scratching action (NC/Nga mice): a decrease in the scratching action | storage stability (in words) [1]: stable in the drugs | amount of transdermal evaporation of water (TEWL) [2]: a decrease in the amount of transdermal water evaporation
